# Measurements from patent US20010005511A1, “Insect control by insect growth regulators broadcast by volatilization” (Wellmark International, priority 1999, published 2001).
# Several values for one entry are separate records, joined by “and”; a condition that tells them apart may be missing. Equal entries are not always repeated. Where two headings read alike, the source gives them in different places.
# Experiments:
# fleas [1] = experiment: Flea control on carpet circles by S-methoprene volatilized by a plug-in heater; format: in vivo, Ctenocephalides felis; settings: for Adult Flea Emergence (From 100 Eggs), Individual Tests: 0.1 g, room 78.4 m^3, activation time 4 h, three carpet circles; for Emax: Ctenocephalides felis
# Experimental: This example illustrates the efficacy of S-methoprene volatilized by a plug-in heater designed for use with mosquito repellents. The heater was an AgRevo heater, 110-120v, 50-60 Hz, 5 watts, purchased from DBK Espana Household Technologies, and the tests were performed in the same test room used for Example 1, adjusted to a floor area of 18.6 m^2 (200 ft^2), resulting in a room volume of 78.4 m^3 (2,800 ft^3). The S-methoprene was placed in the heater by wetting a Whatman filter pad consisting of 50% cellulose and 50% glass fiber, the wetting solution consisting of 8.8% (by weight) S-methoprene in neat 1-methoxy 2-propanol. The amount of solution used was 1.2 g, resulting in 0.1 g of S-methoprene in the pad. Carpet circles were used as in the preceding examples, and all other procedures were the same as those in Example 1. Carpet circles were placed at distances of 0.61 m (2 ft), 3.0 m (10 ft), and 6.1 m (20 ft) from the plug-in-heater, with three carpet circles at each location. Three additional carpet circles were retained outside the room to avoid exposure to the volatilized S-methoprene for use as controls. The activation time for the test circles was four hours. Efficacy was determined by comparing the results from the test circles to those from the control circles.
# fleas [2] = experiment: Residual flea control on carpet circles by S-methoprene volatilized from a 60-watt light bulb in a residential living room; format: in vivo, Ctenocephalides felis; settings: for Number of Adult Fleas Emerging From 100 Eggs, individual test samples: 0.1 g (Solution B), 4 h exposure, 6.1 m from bulb, samples 1-6; for Percent Control (Arithmetic) / Percent Control (Geometric): relative to control samples
# Experimental: This example is a further illustration of the efficacy of S-methoprene volatilized by heating from an incandescent light bulb in the control of fleas. The test was performed in a conventional residential living room with a floor area of 21.5 m^2 (231 ft^2). A single standard 60-watt incandescent bulb was used as the heat source, with a felt ring containing 0.1 g of S-methoprene (using Solution B of Example 1). The temperature of the bulb surface at the location of the felt ring was approximately 200° F. (93° C.). The exposure time (the length of time that the lamp containing the bulb was turned on) was four hours. The carpet circles were placed twenty feet (6.1 m) from the bulb.
# After exposure to the volatilized S-methoprene, the carpet circles were each aged (allowed to rest without additional exposure) for 1, 2, 3, or 4 months. They were then challenged by infestation with flea eggs in the same manner as described above in Example 1. The results, expressed in terms of the number of adult fleas emerging after 35 days, are listed in Table II, together with corresponding results from control samples.
# [3] = tested on: fleas (Ctenocephalides felis); experiment: Flea control on carpet circles by S-methoprene volatilized from a 100-watt light bulb in a test room; format: in vivo; settings: for Efficacy at Indicated Distance from Source, 35-Day Residual Effect: carpet rested 35 days before infestation
# Experimental: This example illustrates the efficacy of S-methoprene volatilized by heating from an incandescent light bulb in the control of fleas (Ctenocephalides felis).
# Testing was performed in a test room measuring 8.5 m (28 ft.) (length)×6.1 m (20 ft) (width)×4.3 m (14 ft.) (height) with a movable partition to reduce the room to the desired size. For this series of tests, the partition was placed in various positions such that the horizontal area of the room was variously:
# A single standard 100-watt incandescent light bulb was used as the heating source, and a felt ring that was cut to fit on the top of the light bulb was used as the support for the liquid S-methoprene solution. Three liquid S-methoprene solutions were used as follows:
# Solution A: S-methoprene and IRGANOX® L57 (in a weight ratio of 50:1), to achieve a solution of […] S-methoprene by weight. IRGANOX ® L57 (Ciba-Geigy Corp., Hawthorne, N.Y., USA) is a liquid aminic antioxidant in the form of an alkylated diphenylamine. No solvents were used.
# Solution B: S-methoprene and BHT (in a weight ratio of 50:1), dissolved in a mixture of 1-methoxy-2-propanol and deionized water (in a weight ratio of 84:16) to achieve a solution of 5.2% S-methoprene by weight.
# Solution C: S-methoprene and BHT (in a weight ratio of 50:1), dissolved in a mixture of 1-methoxy-2-propanol and Belmay B-5 Fragrance (in a weight ratio of 44:56) to achieve a solution of 5% S-methoprene by weight.
# As the infested target, circular pieces of carpet were used. Each piece was 7.6 cm (3 inches) in diameter cut from a 1.3-cm (0.5-inch) pile nylon carpet, and individual circles were placed at distances of 0.61 m (2 ft), 3.0 m (10 ft), and 6.1 m (20 ft) from the light bulb.
# The felt ring in each experiment was wetted with 2 g of solution. […] The bulb was turned on for periods of time ranging from 4 h to 120 h. This is referred to below as the “Activation Time.” The temperature of the bulb surface at the location of the felt ring was approximately 215° F. (102° C.). In some of the tests, a horizontal barrier was placed above the carpet circles at distances of 5.1 cm (2 inches) or 7.6 cm (3 inches), to simulate penetration of the S-methoprene to difficult-to-reach places such as under furniture. The carpet circles were placed in two positions below the barrier—one in which the center of the carpet circle was 30 cm (12 inches) from the edge of the barrier (identified below as “Position 1”), and the other in which the center of the carpet circle was 7.6 cm (3 inches) from the edge of the barrier (identified below as “Position 2”).
# After these exposures, the carpet circles were removed from the room, and sprinkled with flea rearing media and infested with 100 viable flea eggs. Similar carpet circles that had not undergone exposure to the volatilized S-methoprene were similarly sprinkled and infested. The exposed (test) and unexposed (control) carpet circles were then placed in a warm (27° C., 80° F.), high humidity (80% relative humidity) room for 35 days to allow any viable flea eggs in the circles to develop to adult fleas. In some of the tests, the carpet circles were allowed to rest for 35 days after removal from the treatment room before being infested with the flea eggs, to test for residual efficacy. In all cases, efficacy was determined by comparing the results from test circles to those from the control circles.
# [4] = 0.1 g, room 78.4 m^3, activation time 4 h, carpet centre 7.6 cm from barrier edge, 3.0 m
# [5] = 0.1 g, room 78.4 m^3, activation time 4 h, carpet centre 30 cm from barrier edge, 3.0 m
compound,measurement,setting,value
"COC(C)(C)CCC[C@H](C)C/C=C/C(C)=C/C(=O)OC(C)C [S-methoprene, (E,E)-(7S)-11-methoxy-3,7,11-trimethyldodeca-2,4-dienoate, isopropyl ester]","Adult Flea Emergence (From 100 Eggs), Average",fleas [1]; 0.61 m from heater,1
same,"Adult Flea Emergence (From 100 Eggs), Individual Tests",fleas [1]; 0.61 m from heater,0/1/2
same,"Adult Flea Emergence (From 100 Eggs), Average",fleas [1]; 3.0 m from heater,0.3
same,"Adult Flea Emergence (From 100 Eggs), Individual Tests",fleas [1]; 3.0 m from heater,1/0/0
same,"Adult Flea Emergence (From 100 Eggs), Average",fleas [1]; 6.1 m from heater,0.3
same,"Adult Flea Emergence (From 100 Eggs), Individual Tests",fleas [1]; 6.1 m from heater,1/0/0
same,Emax,"fleas [1]; 0.61 m from heater, read-out: % Efficacy (Relative to Control)",92.7%
same,Emax,"fleas [1]; 3.0 m from heater, read-out: % Efficacy (Relative to Control)",97.8%
same,Emax,"fleas [1]; 6.1 m from heater, read-out: % Efficacy (Relative to Control)",97.8%
same,Emax,"fleas [1]; all distances from heater, read-out: % Efficacy (Relative to Control), Overall",96.1%
same,"Flea control, result in words",fleas [1]; all distances from the plug-in heater,excellent control at all distances
same,"Number of Adult Fleas Emerging From 100 Eggs, Mean (Arithmetic), test samples",fleas [2]; 1 month after treatment,2.8
same,"Number of Adult Fleas Emerging From 100 Eggs, Mean (Geometric), test samples",fleas [2]; 1 month after treatment,2.7
same,"Number of Adult Fleas Emerging From 100 Eggs, individual test samples",fleas [2]; 1 month after treatment,3 (2×) and 2 (3×) and 5
same,Percent Control (Arithmetic),fleas [2]; 1 month after treatment,95.6%
same,Percent Control (Geometric),fleas [2]; 1 month after treatment,95.8%
same,"Number of Adult Fleas Emerging From 100 Eggs, Mean (Arithmetic), test samples",fleas [2]; 2 months after treatment,3.2
same,"Number of Adult Fleas Emerging From 100 Eggs, Mean (Geometric), test samples",fleas [2]; 2 months after treatment,1.9
same,"Number of Adult Fleas Emerging From 100 Eggs, individual test samples",fleas [2]; 2 months after treatment,5 and 2 (2×) and 0 and 4 and 6
same,Percent Control (Arithmetic),fleas [2]; 2 months after treatment,95.5%
same,Percent Control (Geometric),fleas [2]; 2 months after treatment,97.3%
same,"Number of Adult Fleas Emerging From 100 Eggs, Mean (Arithmetic), test samples",fleas [2]; 3 months after treatment,3.7
same,"Number of Adult Fleas Emerging From 100 Eggs, Mean (Geometric), test samples",fleas [2]; 3 months after treatment,0.7
same,"Number of Adult Fleas Emerging From 100 Eggs, individual test samples",fleas [2]; 3 months after treatment,1 and 0 (3×) and 5 and 16
same,Percent Control (Arithmetic),fleas [2]; 3 months after treatment,94.0%
same,Percent Control (Geometric),fleas [2]; 3 months after treatment,98.9%
same,"Number of Adult Fleas Emerging From 100 Eggs, Mean (Arithmetic), test samples",fleas [2]; 4 months after treatment,4.0
same,"Number of Adult Fleas Emerging From 100 Eggs, Mean (Geometric), test samples",fleas [2]; 4 months after treatment,3.0
same,"Number of Adult Fleas Emerging From 100 Eggs, individual test samples",fleas [2]; 4 months after treatment,1 (2×) and 8 and 4 (2×) and 6
same,Percent Control (Arithmetic),fleas [2]; 4 months after treatment,94.3%
same,Percent Control (Geometric),fleas [2]; 4 months after treatment,95.7%
same,"Flea control, result in words","fleas [2]; all cases, 1-4 months after treatment",excellent control was achieved in all cases
same,Persistence of the treatment,fleas [2]; carpet circles aged after exposure,persistent for up to four months
same,"Efficacy Under 2-in. Overhead Barrier, Position 2",[3]; [4],Position 2: 96%
same,"Efficacy Under 3-in. Overhead Barrier, Position 2",[3]; [4],Position 2: 100%
same,"Efficacy Under 2-in. Overhead Barrier, Position 1",[3]; [5],Position 1: 99%
same,"Efficacy Under 3-in. Overhead Barrier, Position 1",[3]; [5],Position 1: 100%
same,Efficacy at Indicated Distance from Source,"[3]; 0.1 g, room 78.4 m^3, activation time 24 h, 0.61 m from source",99%
same,"Efficacy at Indicated Distance from Source, 35-Day Residual Effect","[3]; 0.1 g, room 78.4 m^3, activation time 24 h, 0.61 m",96%
same,Efficacy at Indicated Distance from Source,"[3]; 0.1 g, room 78.4 m^3, activation time 24 h, 3.0 m from source",99%
same,"Efficacy at Indicated Distance from Source, 35-Day Residual Effect","[3]; 0.1 g, room 78.4 m^3, activation time 24 h, 3.0 m",96%
same,Efficacy at Indicated Distance from Source,"[3]; 0.1 g, room 78.4 m^3, activation time 24 h, 6.1 m from source",99%
same,"Efficacy at Indicated Distance from Source, 35-Day Residual Effect","[3]; 0.1 g, room 78.4 m^3, activation time 24 h, 6.1 m",97%
same,Efficacy at Indicated Distance from Source,"[3]; 0.1 g, room 117.6 m^3, activation time 4 h, 0.61 m from source",100%
same,Efficacy at Indicated Distance from Source,"[3]; 0.1 g, room 117.6 m^3, activation time 4 h, 3.0 m from source",99.4%
same,Efficacy at Indicated Distance from Source,"[3]; 0.1 g, room 117.6 m^3, activation time 4 h, 6.1 m from source",99.4%
same,Efficacy at Indicated Distance from Source,"[3]; 0.1 g, room 186.8 m^3, activation time 4 h, 0.61 m from source",100%
same,Efficacy at Indicated Distance from Source,"[3]; 0.1 g, room 186.8 m^3, activation time 4 h, 3.0 m from source",99.6%
same,Efficacy at Indicated Distance from Source,"[3]; 0.1 g, room 186.8 m^3, activation time 4 h, 6.1 m from source",100%
same,Efficacy at Indicated Distance from Source,"[3]; 0.1 g, room 196 m^3, activation time 4 h, 0.61 m from source",95%
same,Efficacy at Indicated Distance from Source,"[3]; 0.1 g, room 196 m^3, activation time 4 h, 3.0 m from source",97.3%
same,Efficacy at Indicated Distance from Source,"[3]; 0.1 g, room 196 m^3, activation time 4 h, 6.1 m from source",96.5%
same,Efficacy at Indicated Distance from Source,"[3]; 1.8 g S-methoprene volatilized, room 78.4 m^3, activation time 120 h, 0.61 m from source",100%
same,Efficacy at Indicated Distance from Source,"[3]; 1.8 g S-methoprene volatilized, room 78.4 m^3, activation time 120 h, 3.0 m from source",100%
same,Efficacy at Indicated Distance from Source,"[3]; 1.8 g S-methoprene volatilized, room 78.4 m^3, activation time 120 h, 6.1 m from source",100%
same,"Flea control, result in words","[3]; all cases, including lower dosage rate, 35-day residual effect, overhead barrier",excellent control was achieved in all cases
